Six molecules from patent publication US11434241B2, “Pyrimidine derivatives for prevention and treatment of bacterial infections” (UNIVERSITE DE LIEGE, priority 2018, dated 2022) can be followed below.

In brackets after ≈: the same amount, converted by molar mass. Like-named read-outs stand apart in the source and are kept apart here.

Assay [1] relates to S. aureus Xen29 (ATCC 12600). The assay is described as follows: MIC determination on bioluminescent S. aureus Xen29. Format: cell-based, Staphylococcus aureus. The following applies: for antibacterial activity / inhibition of Xen29 growth (in words): MHB medium; for MIC: Staphylococcus aureus. On the procedure:
(§1) Further experiments are conducted using different strains of S. aureus, as clinically relevant Gram-positive bacterial strains: S. aureus ATCC 25904, methicillin-resistant S. aureus (MRSA) ATCC BAA-1556, Glycopeptide intermediate-resistant (GISA) S. aureus Mu-50 (ATCC 700695) in order to determine the Minimal Inhibitory Concentration (MIC) which is the minimal concentration required to prevent bacterial growth. The bioluminescent strain S. aureus Xen29 (ATCC 12600) was also used. This strain is derived from the parental strain S. aureus ATCC 12600, a pleural fluid isolate, which is also designated as NCTC8532.
(§2) A single colony selected from the different strains of S. aureus is resuspended and cultured in brain heart infusion (BHI) broth overnight (O/N) in aerobic conditions (37° C. with 220 rpm shaking), next day a 1:100 inoculum in Mueller-Hinton broth (MHB) is incubated in aerobic conditions for 3 hr (=OD0.08-0.1) and an inoculum of 1:300 dilution, corresponding to 3×10^5 CFU/ml, is incubated in presence or absence of different concentrations of the tested molecules in 1% DMSO. After O/N growth the OD of each culture was measured at 600 nm (OD600) in a spectrophotometer (Victor 3-Perkin Elmer). The MIC represents the concentration at which there is no visible growth of bacteria, i.e. ΔOD at 600 nm equal to zero (blank is the medium alone). […] The MIC of molecule 2329 against Glycopeptide intermediate-resistant (GISA) S. aureus Mu-50 (ATCC 700695) is in between 25 and 30 μM, while it is above 50 μM for molecules 2348, 2412, and 2452.
(§3) Further experiments are conducted using different strains of S. aureus, as clinically relevant Gram-positive bacterial strains: methicillin-resistant S. aureus (MRSA) ATCC BAA-1556 and S. aureus Xen29 (Perkin Elmer ATCC 12600).
(§4) To determine the MIC of the above mentioned molecules in MRSA or in Xen29, a single colony of MRSA or Xen29 is resuspended and cultured in brain heart infusion (BHI) broth overnight (O/N) in aerobic conditions (37° C. with 220 rpm shaking), next day a 1:100 inoculum in Mueller-Hinton broth (MHB) is incubated in aerobic conditions for 3 hr (OD=0.08-0.1) and an inoculum of 1:300 dilution, corresponding to 3×10^5 CFU/ml, is incubated in presence or absence of different concentrations of the tested molecules in 1% DMSO. After O/N growth the OD of each culture was measured at 600 nm (OD600) in a spectrophotometer (Victor 3-Perkin Elmer). The MIC represents the concentration at which there is no visible growth of bacteria, i.e. ΔOD at 600 nm equal to zero (blank is the medium alone).
(§5) Molecule 36z has been tested for its potential antibacterial activity by determining its minimal inhibitory concentration (MIC) according to protocols recommended by EUCAST to assess the efficacy of antibiotics against bacterial strains. In brief MIC in MRSA (ATCC BAA-1556) or in Xen29 (Perkin Elmer-ATCC 12600) for 36z (molecule 25 in WO2009/034386) was determined by culturing a single colony of MRSA or Xen29 in brain heart infusion (BHI) broth overnight (O/N) in aerobic conditions (37° C. with 220 rpm shaking), while MIC for MRSE (ATCC 35984) was determined by culturing MRSE in TSB O/N. Next day a 1:100 inoculum in Mueller-Hinton broth (MHB) is incubated in aerobic conditions for 3 hr (OD=0.08-0.1) and an inoculum of 1:300 dilution, corresponding to 3×10^5 CFU/ml, is incubated in presence or absence of different concentrations of the tested molecules in 1% DMSO. After O/N growth the OD of each culture was measured at 600 nm (OD600) in a spectrophotometer (Victor 3-Perkin Elmer). The MIC represents the concentration at which there is no visible growth of bacteria, i.e. ΔOD at 600 nm equal to zero (blank is the medium alone). No antibacterial activity was found against MRSA (ATCC BAA-1556), Xen29 (Perkin Elmer-ATCC 12600 or MRSE (ATCC 35984) strains when the molecule was used at concentrations up to 200 μM.

The test system of assay [2] is Staphylococcus aureus (Xen29-ATCC 12600) biofilm formation. Description: S. aureus Xen29 biofilm formation (bioluminescence imaging, IVIS). Format: cell-based. The following applies: imaged every 60 min for 13 hours; for biofilm formation (photon signal per second, radiance): 20 μM, vs vehicle; for biofilm formation (photon signal per surface unit): 10 μM, vs vehicle DMSO 1%. On the procedure: (§6) Bioluminescent S. aureus (Xen29, Perkin Elmer-(ATCC 12600)) is grown overnight in TSB medium, before being diluted 100 fold in fresh TSB, and incubated aerobically at 37° C. until bacteria culture reached an OD600 of 0.6 (corresponding to approximately 1-3×10^8 CFU/ml). Bacteria cultures are then diluted to 1×10^4 CFU/ml in fresh TSB. 600 μl aliquots of diluted bacteria suspensions are distributed in each well of a 48-well plate. Bacteria are allowed to adhere for 3 hours under static conditions at 37° C. After removing media, wells are rinsed 2 times with PBS to eliminate planktonic bacteria and re-filled with TSB supplemented with 0.5% glucose
(§7) […] Biofilm formation is imaged every 60 min, for 13 hours, using a IVIS camera system (Xenogen Corp.) Total photon emission from each well is then quantified using the Living Image software package (Xenogen Corp.).
as §6, with “suspensions were” for “suspensions are”
as §7
as §6, with “was” for “(Xen29, Perkin Elmer-(ATCC 12600)) is”, “O/N” for “overnight”, “were” for “are”, “TSB and aliquots of” for “TSB.”, “were” for “aliquots of diluted bacteria suspensions are”, “glucose. Molecules 2666 and 2511 were then added at 20 μM final concentration. Biofilm formation is imaged every 60 min, for 13 hours, using a IVIS camera system (Xenogen Corp.) Total photon emission from each well (photon/second:p/s) is then quantified using the Living Image software package (Xenogen Corp.).” for “glucose”

Assay [3] concerns methicillin-resistant S. aureus (MRSA) ATCC BAA-1556. Description: MIC determination on methicillin-resistant S. aureus. It is filed as cell-based, Staphylococcus aureus. The following applies: for antibacterial activity against MRSA (in words): MHB medium; for MIC: Staphylococcus aureus. How it is done:
as §1, §2, §3, §4, §5

Where [4] appears, read: ATCC12600, read-out: MIC S. aureus Xen29.

As to `CCn1cnc2c(N[C@@H]3C[C@H]3c3ccc(F)c(F)c3)nc(SC)nc21` [Molecule 2511, N-((1R,2S)-2-(3,4-difluorophenyl)cyclopropyl)-9-ethyl-2-(methylthio)-9H-purin-6-amine], the “antibacterial activity / inhibition of Xen29 growth (in words)” value in assay [1] is “able to inhibit”. For the same molecule, the MIC came out at 30 µM (≈ 10.8 µg/mL) in assay [1] (ATCC12600, read-out: MIC Xen29) and 30 µM (≈ 10.8 µg/mL) in assay [3] (read-out: MIC MRSA). The “biofilm formation (photon signal per second, radiance)” value in assay [2] is “inhibited biofilm growth”. Further, the “antibacterial activity against MRSA (in words)” value in assay [3] is recorded as “active”.

With `C=CCn1cnc2c(N[C@@H]3C[C@H]3c3ccc(F)c(F)c3)nc(SCCC)nc21` [Molecule 2412, 9-allyl-N-((1R,2S)-2-(3,4-difluorophenyl)cyclopropyl)-2-(propylthio)-9H-purin-6-amine], the figures for the minimum inhibitory concentration (MIC) in assay [1] (setting [4]) and in assay [3] (read-out: MIC S. aureus MRSA) were 20 to 25 µM (≈ 8.03 to 10 µg/mL) and 25 to 50 µM (≈ 10 to 20.1 µg/mL), respectively. Moreover, the “biofilm formation (photon signal per surface unit)” value in assay [2] is on record as “delay biofilm formation”.

Consider `C#CCn1cnc2c(N[C@@H]3C[C@H]3c3ccc(F)c(F)c3)nc(SCCC)nc21` [Molecule 2452, N-((1R,2S)-2-(3,4-difluorophenyl)cyclopropyl)-9-(prop-2-yn-1-yl)-2-(propylthio)-9H-purin-6-amine], for which the MIC was 20 to 25 µM (≈ 7.99 to 9.99 µg/mL) in assay [1] (setting [4]) and 25 to 50 µM (≈ 9.99 to 20 µg/mL) in assay [3] (read-out: MIC S. aureus MRSA). In assay [2], the “biofilm formation (photon signal per surface unit)” value was “delay biofilm formation”.

In the case of `CCSc1nc(N[C@@H]2C[C@H]2c2ccc(F)c(F)c2)c2cnn(C)c2n1.Cl` [Molecule 2666, N-((1R,2S)-2-(3,4-difluorophenyl)cyclopropyl)-6-(ethylthio)-1-methyl-1H-pyrazolo[3,4-d]pyrimidin-4-amine hydrochloride], in assay [1], the “antibacterial activity / inhibition of Xen29 growth (in words)” value is “able to inhibit”. Also, the MIC in assay [1] (ATCC12600, read-out: MIC Xen29) amounted to 20 µM; in assay [3] (read-out: MIC MRSA), 20 µM. The “biofilm formation (photon signal per second, radiance)” value in assay [2] is “inhibited biofilm growth”. Moreover, the “antibacterial activity against MRSA (in words)” value in assay [3] is recorded as “active”.

In the case of `CCCSc1nc(N[C@@H]2C[C@H]2c2ccc(F)c(F)c2)c2ncn(C)c2n1` [Molecule 2329, N-((1R,2S)-2-(3,4-difluorophenyl)cyclopropyl)-9-methyl-2-(propylthio)-9H-purin-6-amine], the MIC in assay [1] (setting [4]) was 20 to 25 µM (≈ 7.51 to 9.39 µg/mL); in assay [3] (read-out: MIC S. aureus MRSA), 20 µM (≈ 7.51 µg/mL). Moreover, in assay [2], the “biofilm formation (photon signal per surface unit)” value was “fully prevented biofilm formation”.

Take `CCCSc1nc(N[C@@H]2C[C@H]2c2ccc(F)c(F)c2)c2ncn(CC)c2n1` [Molecule 2348, N-((1R,2S)-2-(3,4-difluorophenyl)cyclopropyl)-9-ethyl-2-(propylthio)-9H-purin-6-amine]: the results for the MIC in assay [1] (setting [4]) and in assay [3] (read-out: MIC S. aureus MRSA) were 20 to 25 µM (≈ 7.79 to 9.74 µg/mL) and 25 µM (≈ 9.74 µg/mL), respectively. In addition, in assay [2], the “biofilm formation (photon signal per surface unit)” value is recorded as “fully prevented biofilm formation”.
